# According to US20230310432A1 (JULIUS-MAXIMILIANS-UNIVERSITÄT WÜRZBURG, priority 2017, published 2023):
# What was measured:
# [1] = system: CD8+ T cells expressing a CD19 CAR with CD28 costimulatory domain; test: Bioluminescence-based cytotoxicity assay, K562/CD19 target cells; assay type: cell-based, human
# [2] = system: CD8+ T cells expressing a CD19 CAR with CD28 costimulatory domain; test: Cytokine production and secretion (IFN-γ, IL-2 ELISA), co-culture with K562/CD19; assay type: cell-based, human; conditions: dasatinib ≥50 nM; 20 h
# Experimental: (§1) Cytokine secretion: 5×10^4 T-cells were plated in duplicate or triplicate wells with target cells at an E:T ratio of 4:1 (K562/ROR1, K562/CD19, RCH-ACV), and IFN-γ and IL-2 were measured by ELISA, or cytokine panels were measured by multiplex cytokine immunoassay (Luminex) in supernatant removed after 20-h incubation. Specific cytokine production was calculated by subtracting the amount of cytokines released by unstimulated CAR-T cells from the amount of cytokines released after antigen-specific stimulation. The remaining cytokine secretion in % as shown in the diagrams is normalized to CAR-T cells in the absence of dasatinib-treatment (100%).
# CAR-T cells were co-cultured with K562 that the inventors had transduced with either CD19 (for testing CD19 CAR-T cells) or ROR1 (for testing ROR1 CAR-T cells). Dasatinib was added to the assay medium at the beginning of the co-culture assay. ELISA was performed to detect IFN-γ and IL-2 in supernatant removed from the co-culture.
# [3] = system: CD4+ T cells expressing a SLAMF7 CAR with 4-1BB costimulatory domain; test: Cytokine ELISA, co-culture with K562/SLAMF7; assay type: cell-based, human; conditions: dasatinib ≥20 nM; 20 h
# Experimental: as §1
# (§2) The inventors prepared SLAMF7-specific CD8^+ and CD4^+ CAR-T cell lines from n=2 healthy donors. In each of the T-cell lines, the inventors enriched CAR-expressing T cells to >90% purity using the EGFRt-transduction marker. […] CAR-T cells were co-cultured with K562 that the inventors had transduced with SLAMF7. Dasatinib was added to the assay medium at the beginning of the co-culture assay. ELISA was performed to detect IFN-γ and IL-2 in supernatant removed from the co-culture.
# [4] = system: CD4+ T cells expressing a SLAMF7 CAR with CD28 costimulatory domain; test: Cytokine ELISA, co-culture with K562/SLAMF7; assay type: cell-based, human; conditions: dasatinib 20 nM; 20 h
# Experimental: as §1, §2
# [5] = system: CD8+ T cells expressing a SLAMF7 CAR with 4-1BB costimulation; test: Cytokine ELISA, co-culture with K562/SLAMF7; assay type: cell-based, human; conditions: 20 h
# Experimental: as §1, §2
# [6] = system: CD8+ T cells expressing a SLAMF7 CAR with CD28 costimulatory domain; test: Cytokine ELISA, co-culture with K562/SLAMF7; assay type: cell-based, human; conditions: 20 h
# Experimental: as §1, §2
# [7] = system: CAR CD3 zeta at tyrosine 142; test: Quantitative Western blot of phosphorylation in CD8+ CD19 CAR/4-1BB T cells; assay type: cell-based, human; conditions: 100 nM dasatinib; co-culture with RCH-ACV
# [8] = system: CD8+ CD19 CAR/4-1BB T cells; test: Apoptosis assay (Annexin-V/7-AAD) after co-culture with K562/CD19; assay type: cell-based, human
# Experimental: CD8^+ CD19 CAR-T cells were cultured in the presence of 50 U IL-2 either alone or with irradiated (80 Gy) K562/CD19 tumor cells at an E:T ratio of 4:1. […] After 24 hours of co-culture, co-cultures were labeled with anti-CD8 mAb, 7AAD and AnnexinV according to the manufacturer's instructions (BD Biosciences, Heidelberg, Germany), and analyzed by flow cytometry to evaluate the amount of apoptotic and dead T cells.
# At the end of the co-culture, the inventors performed staining with Annexin-V and 7-AAD to determine the percentage of live CAR-T cells (Annexin-V-negative/7-AAD-negative), CAR-T cells undergoing apoptosis (Annexin-V-positive/7-AAD-negative), and dead CAR-T cells (Annexin-V-positive/7-AAD-positive).
# [9] = system: NFAT/GFP reporter in CD8+ CD19 CAR/4-1BB T cells; test: NFAT/GFP reporter assay during sequential stimulation; assay type: cell-based, human; conditions: day 1
# [10] = system: NFAT/GFP reporter in CD4+ T cells co-expressing the CD19 CAR with 4-1BB costimulatory domain; test: as above; assay type: cell-based, human
# [11] = system: NFAT inducible GFP reporter gene in CD19CAR/41BB T cells; test: NFAT-inducible GFP reporter expression in CAR-T cells in vivo; design: species or system NSG mice
# Excerpt: The inventors prepared CD8^+ and CD4^+ CD19CAR/41BB T cells, which the inventors transduced to co-express an NFAT inducible GFP reporter gene.
# [12] = system: CD19 CAR/4-1BB-T cells; Raji tumor cells; test: Tumor burden by bioluminescence imaging, intermittent dasatinib (Example 11); assay type: in vivo, NSG mice; conditions: day 8; CAR-T cells and intermittent dasatinib 5 mg/kg; 1.9e10 without dasatinib
# Experimental: The Institutional Animal Care and Use Committee of UKW approved all mouse experiments. NOD.Cg-Prkdc^scidIl2rg^tm1wjl/SzJ (NSG) mice (female, 6-8 week old) were purchased from Charles River (Sulzfeld, Germany). Mice were inoculated with 1×10^6 Raji/ffluc_GFP tumor cells via tail vein injection (i.v.). Mice were treated with 5×10^6 CAR-modified or control untransduced T-cells (CD4:CD8 ratio=1:1) via tail vein injection (i.v.). […] Tumor burden and distribution was analyzed by serial bioluminescence imaging on an IVIS Lumina imager (Perkin Elmer, Baesweiler, Germany): mice received i.p. injections of 0.3 mg/g luciferin and images were acquired 10 minutes after luciferin injection in small binning mode at an acquisition time of 1 s to 1 min to obtain unsaturated images. Data were analyzed using LivingImage Software (Caliper) and the average radiance (or photon flux) analyzed in regions of interest that encompassed the entire body of each individual mouse. Mice were sacrificed at the end of the experiment and human T cells in bone marrow, peripheral blood and spleen were analyzed by flow cytometry. The presence of (human) cytokines in serum was measured using multiplex cytokine analysis.
# In brief, cohorts of 1-12 mice were inoculated with 1×10^6 firefly-luciferase_GFP-transduced Raji tumor cells on day 0. […]
# [13] = dasatinib added at 2 hours after the start of the co-culture, 24 h
# [14] = d+3, dasatinib not in effect any more
structure (smiles),measurement,setting,value
Cc1nc(Nc2ncc(C(=O)Nc3c(C)cccc3Cl)s2)cc(N2CCN(CCO)CC2)n1 [dasatinib],specific lysis of target cells,"[1]; dasatinib 50 nM, t=5 h, 52% by non-dasatinib treated",less than 23%
same,residual specific lysis of target cells,"[1]; dasatinib 50 nM, t=10 h, 91% by non-dasatinib treated",47%
same,specific lysis of target cells,"[1]; dasatinib 100 nM, any given time point, 91% by non-dasatinib treated at t=10 h",less than 10%
same,residual specific IFN-γ production compared to non-dasatinib treated CAR-T cells,[2],less than 4.5%
same,residual IFN-γ,[3],less than 0.5%
same,residual IFN-γ,[4],less than 1.2%
same,residual specific IFN-γ production,[5]; dasatinib 20 nM,less than 15%
same,residual specific IFN-γ production,[5]; dasatinib ≥40 nM,less than 0.8%
same,residual specific IFN-γ production,[6]; dasatinib ≥20 nM,less than 4%
same,residual specific IFN-γ production,[6]; dasatinib ≥40 nM,less than 0.2%
same,phosphorylation compared to CAR-T cells co-cultured in the absence of dasatinib,[7],12.86%
same,dead CAR-T cells (Annexin-V-positive/7-AAD-positive),"[8]; 100 nM dasatinib present, 24 h with K562/CD19, 8.4% in absence",6.9%
same,alive CAR-T cells (Annexin-V-negative/7-AAD-negative),"[8]; 100 nM dasatinib present, 24 h with K562/CD19, 25.4% in absence",47.4%
same,apoptotic CAR-T cells (Annexin-V-positive/7-AAD-negative),"[8]; 100 nM dasatinib present, 24 h with K562/CD19, 66.2% in absence",45.7%
same,alive CAR-T cells,[8]; [13],41.7%
same,apoptotic CAR-T cells,[8]; [13],51.3%
same,dead CAR-T cells,[8]; [13],7%
same,GFP MFI,"[9]; dasatinib added one hour after assay set up, 1949 in untreated stimulated CAR-T cells",734
same,GFP MFI,[9]; dasatinib present from the beginning,137
same,GFP MFI,"[10]; day 1, dasatinib present from the beginning",317
same,GFP MFI,"[10]; day 3, treated at 1 hour after assay set up, 2499 in untreated",326
same,GFP MFI,"[10]; day 3, treated from the beginning, 2499 in untreated",108
same,mean fluorescence intensity (MFI) for GFP in bone marrow CAR-T cells,"[11]; d+1, CAR/treated, 10687 CAR/untreated",6967
same,"reduction of GFP MFI, bone marrow CAR-T cells","[11]; d+1, treated vs untreated",35%
same,"reduction of GFP reporter gene expression, spleen CAR-T cells","[11]; d+1, treated vs untreated",36%
same,"difference in GFP between previously treated and untreated CAR-T cells, bone marrow",[11]; [14],10%
same,"difference in GFP between previously treated and untreated CAR-T cells, spleen",[11]; [14],23%
same,average bioluminescence signal,[12],5.6e9 p/s/cm*2/sr
